According to US20260217701A1, “SELECTIVE BET INHIBITORS AND USES THEREOF” (Tay Therapeutics Limited, priority 2022, published 2026):
Marks after values point to notes of the source that are not given here.

Experiments:
[1] = Pharmacokinetics of Compound A in the CIA study (groups 8 and 9); type: in vivo; details: Lewis rats
Procedure: (§1) Blood samples were collected from animals in group 8 on Day 0, and blood samples were collected from group 9 on Day 20. Blood samples from group 8 and group 9 were collected at 0.25, 0.5, 1, 2, 4, 8, 10, 12, 13, and 24-hours following morning administration of their first dose of the compound. The second dose of the compound was administered after the 8-hour collection timepoint. All blood samples were collected at the eye socket and put into tubes containing EDTA-K2 as an anticoagulant and centrifuged at 4° C. at 4,000 g for 5 minutes. Plasma was transferred to a separate tube and stored at −75+15° C. for PK analysis. Pharmacokinetic analyses for Compound A in Lewis rats were performed as described in Experimental Method B.
as §1, with “−75±15°” for “−75+15°”, “Pharmacokinetic analyses for Compound A in Lewis rats were performed as described in Experimental Method B.” left out

[2] = system: experimental autoimmune encephalomyelitis; assay: Experimental autoimmune encephalomyelitis (EAE) model: EAE scores, onset, incidence; type: in vivo, C57BI/6 mice
Procedure: Experimental Method H: EAE in animals treated with a BET inhibitor and vehicle. Animals were assigned to the groups outlined in Table 38.
Compound A may be formulated as illustrated in Experimental Method A (see Table 2E.). A 40 mg/mL stock solution of Compound A in DMSO was prepared and aliquots stored at −20° C. On each day of preparation an e.g., 0.75 mL aliquot of thawed stock was diluted with an equal volume of DMSO. The remaining vehicle components were added to provide the highest dose and then diluted with vehicle to provide lower doses. A 30 mg/mL stock solution of FTY720 in ethanol was prepared and stored at −20° C. Daily, the stock solution was diluted with room temperature water to a final dosing concentration of 0.6 mg/mL. Formulated Compound A, FTY720 and vehicle were each at room temperature for dosing.
Female C57BI/6 mice (9 weeks old) were acclimated for seven days prior to study initiation. On Day-1, animals were assigned to groups in a balanced manner to achieve similar average weights across the different groups. Chronic EAE was induced in female C57BI/6 mice following immunization with an emulsion of MOG35-55/CFA on Day 0, followed by an injection of pertussis toxin two hours after the initial immunization. On Day 1, a second injection of pertussis toxin was administered 24 hours after the initial immunization. Mice were injected subcutaneously at two sites on the back with the MOG35-55/CFA emulsion (Hooke Kit™ MOG35-55/CFA Emulsion PTX). The first injection site was located approximately 1 cm caudal of the neckline (upper back), and the second injection site was approximately 2 cm cranial of the base of the tail (lower back). The injection volume was 0.1 mL for each injection. The pertussis toxin was administered at the described times through intraperitoneal injection at a concentration of 85 ng/dose for both injections.
Body weight was measured three times a week (Monday, Wednesday, and Friday) starting on Day-1. Animals were scored daily for EAE starting on Day 7. In-between scores were assigned when the clinical signs fell between two below defined scores.

BET BD2 = assay: Comparison with other BET inhibitors in development (EC50, selectivity, oral bioavailability; public information)
[3] = all animals receiving Compound A

Structure (SMILES): Cn1cc(-c2ccccc2)c(-c2cn(C)c(=O)c3[nH]c(-c4cnn(C(F)(F)F)c4)cc23)cc1=O [Compound A, 6-methyl-4-(1-methyl-2-oxo-5-phenyl-1,2-dihydropyridin-4-yl)-2-(1-(trifluoromethyl)-1H-pyrazol-4-yl)-1,6-dihydro-7H-pyrrolo[2,3-c]pyridin-7-one]
- period of increasing plasma concentration after oral administration [1]: approximately the first four hours
- EAE incidence rate ([2]; 1 mg/kg (lowest dose)): 100%
- Mean maximum EAE scores relative to vehicle ([2]; 1 mg/kg, 3 mg/kg and 10 mg/kg): significantly reduced mean maximum scores
- EAE incidence rate ([2]; 3 mg/kg): 91.7%
- EAE incidence rate ([2]; 10 mg/kg): 83.3%
- Incidence of EAE (%) ([2]; Compound A 1 mg/kg (Group 2)): 100%
- Mean Day of Onset (SEM) ([2]; Compound A 1 mg/kg (Group 2)): 14.5 (0.9) Day
- Mean End Score (SEM) ([2]; Compound A 1 mg/kg (Group 2)): 1.05 (0.35)*
- Mean Maximum Score (SEM) ([2]; Compound A 1 mg/kg (Group 2)): 2.18 (0.25)*
- Median Day of Onset ([2]; Compound A 1 mg/kg (Group 2)): 13.0 days
- Mean EAE score ([2]; Compound A 1 mg/kg (Group 2), Day 7): 0.00
- Mean EAE score ([2]; Compound A 1 mg/kg (Group 2), Day 8): 0.00
- Mean EAE score ([2]; Compound A 1 mg/kg (Group 2), Day 9): 0.00
- Mean EAE score ([2]; Compound A 1 mg/kg (Group 2), Day 10): 0.00
- Mean EAE score ([2]; Compound A 1 mg/kg (Group 2), Day 11): 0.05
- Mean EAE score ([2]; Compound A 1 mg/kg (Group 2), Day 12): 0.18
- Mean EAE score ([2]; Compound A 1 mg/kg (Group 2), Day 13): 0.55
- Mean EAE score ([2]; Compound A 1 mg/kg (Group 2), Day 14): 0.95
- Mean EAE score ([2]; Compound A 1 mg/kg (Group 2), Day 15): 1.27
- Mean EAE score ([2]; Compound A 1 mg/kg (Group 2), Day 16): 1.45
- Mean EAE score ([2]; Compound A 1 mg/kg (Group 2), Day 17): 1.73
- Mean EAE score ([2]; Compound A 1 mg/kg (Group 2), Day 18): 1.68
- Mean EAE score ([2]; Compound A 1 mg/kg (Group 2), Day 19): 1.68
- Mean EAE score ([2]; Compound A 1 mg/kg (Group 2), Day 20): 1.55
- Mean EAE score ([2]; Compound A 1 mg/kg (Group 2), Day 21): 1.64
- Mean EAE score ([2]; Compound A 1 mg/kg (Group 2), Day 22): 1.32
- Mean EAE score ([2]; Compound A 1 mg/kg (Group 2), Day 23): 1.23
- Mean EAE score ([2]; Compound A 1 mg/kg (Group 2), Day 24): 1.23
- Mean EAE score ([2]; Compound A 1 mg/kg (Group 2), Day 25): 1.09
- Mean EAE score ([2]; Compound A 1 mg/kg (Group 2), Day 26): 1.14
- Mean EAE score ([2]; Compound A 1 mg/kg (Group 2), Day 27): 1.09
- Mean EAE score ([2]; Compound A 1 mg/kg (Group 2), Day 28): 1.05
- Incidence of EAE (%) ([2]; Compound A 3 mg/kg (Group 3)): 91.7%
- Mean Day of Onset (SEM) ([2]; Compound A 3 mg/kg (Group 3)): 14.2 (0.4) Day
- Mean End Score (SEM) ([2]; Compound A 3 mg/kg (Group 3)): 0.73 (0.26)**
- Mean Maximum Score (SEM) ([2]; Compound A 3 mg/kg (Group 3)): 1.77 (0.23)***
- Median Day of Onset ([2]; Compound A 3 mg/kg (Group 3)): 14.0 days
- Mean EAE score ([2]; Compound A 3 mg/kg (Group 3), Day 7): 0.00
- Mean EAE score ([2]; Compound A 3 mg/kg (Group 3), Day 8): 0.00
- Mean EAE score ([2]; Compound A 3 mg/kg (Group 3), Day 9): 0.00
- Mean EAE score ([2]; Compound A 3 mg/kg (Group 3), Day 10): 0.00
- Mean EAE score ([2]; Compound A 3 mg/kg (Group 3), Day 11): 0.00
- Mean EAE score ([2]; Compound A 3 mg/kg (Group 3), Day 12): 0.00
- Mean EAE score ([2]; Compound A 3 mg/kg (Group 3), Day 13): 0.29
- Mean EAE score ([2]; Compound A 3 mg/kg (Group 3), Day 14): 0.63
- Mean EAE score ([2]; Compound A 3 mg/kg (Group 3), Day 15): 0.88
- Mean EAE score ([2]; Compound A 3 mg/kg (Group 3), Day 16): 1.29
- Mean EAE score ([2]; Compound A 3 mg/kg (Group 3), Day 17): 1.67
- Mean EAE score ([2]; Compound A 3 mg/kg (Group 3), Day 18): 1.54
- Mean EAE score ([2]; Compound A 3 mg/kg (Group 3), Day 19): 1.18
- Mean EAE score ([2]; Compound A 3 mg/kg (Group 3), Day 20): 1.23
- Mean EAE score ([2]; Compound A 3 mg/kg (Group 3), Day 21): 1.18
- Mean EAE score ([2]; Compound A 3 mg/kg (Group 3), Day 22): 0.95
- Mean EAE score ([2]; Compound A 3 mg/kg (Group 3), Day 23): 0.91
- Mean EAE score ([2]; Compound A 3 mg/kg (Group 3), Day 24): 0.91
- Mean EAE score ([2]; Compound A 3 mg/kg (Group 3), Day 25): 0.95
- Mean EAE score ([2]; Compound A 3 mg/kg (Group 3), Day 26): 0.95
- Mean EAE score ([2]; Compound A 3 mg/kg (Group 3), Day 27): 0.95
- Mean EAE score ([2]; Compound A 3 mg/kg (Group 3), Day 28): 0.73
- Incidence of EAE (%) ([2]; Compound A 10 mg/kg (Group 4)): 83.3%
- Mean Day of Onset (SEM) ([2]; Compound A 10 mg/kg (Group 4)): 13.4 (0.6) Day
- Mean End Score (SEM) ([2]; Compound A 10 mg/kg (Group 4)): 0.29 (0.13)***
- Mean Maximum Score (SEM) ([2]; Compound A 10 mg/kg (Group 4)): 1.67 (0.28)***
- Median Day of Onset ([2]; Compound A 10 mg/kg (Group 4)): 13.0 days
- Mean EAE score ([2]; Compound A 10 mg/kg (Group 4), Day 7): 0.00
- Mean EAE score ([2]; Compound A 10 mg/kg (Group 4), Day 8): 0.00
- Mean EAE score ([2]; Compound A 10 mg/kg (Group 4), Day 9): 0.00
- Mean EAE score ([2]; Compound A 10 mg/kg (Group 4), Day 10): 0.00
- Mean EAE score ([2]; Compound A 10 mg/kg (Group 4), Day 11): 0.04
- Mean EAE score ([2]; Compound A 10 mg/kg (Group 4), Day 12): 0.21
- Mean EAE score ([2]; Compound A 10 mg/kg (Group 4), Day 13): 0.83
- Mean EAE score ([2]; Compound A 10 mg/kg (Group 4), Day 14): 1.04
- Mean EAE score ([2]; Compound A 10 mg/kg (Group 4), Day 15): 1.33
- Mean EAE score ([2]; Compound A 10 mg/kg (Group 4), Day 16): 1.46
- Mean EAE score ([2]; Compound A 10 mg/kg (Group 4), Day 17): 1.46
- Mean EAE score ([2]; Compound A 10 mg/kg (Group 4), Day 18): 1.54
- Mean EAE score ([2]; Compound A 10 mg/kg (Group 4), Day 19): 1.21
- Mean EAE score ([2]; Compound A 10 mg/kg (Group 4), Day 20): 1.13
- Mean EAE score ([2]; Compound A 10 mg/kg (Group 4), Day 21): 1.17
- Mean EAE score ([2]; Compound A 10 mg/kg (Group 4), Day 22): 0.75
- Mean EAE score ([2]; Compound A 10 mg/kg (Group 4), Day 23): 0.71
- Mean EAE score ([2]; Compound A 10 mg/kg (Group 4), Day 24): 0.63
- Mean EAE score ([2]; Compound A 10 mg/kg (Group 4), Day 25): 0.46
- Mean EAE score ([2]; Compound A 10 mg/kg (Group 4), Day 26): 0.50
- Mean EAE score ([2]; Compound A 10 mg/kg (Group 4), Day 27): 0.46
- Mean EAE score ([2]; Compound A 10 mg/kg (Group 4), Day 28): 0.29
- Mean EAE score compared to positive control FTY720 ([2]; Day 28, 10 mg/kg): comparable mean EAE score
- Day on which EAE scores peaked [2, 3]: ~17 days
- Mean end EAE scores relative to vehicle [2, 3]: significantly reduced mean end scores
- Mean day of onset of EAE compared with vehicle ([2]; all doses): similar
- selectivity relative to other BET inhibitors (BET BD2; same comparators): higher selectivity
- EC50 relative to other BET inhibitors (BET BD2; vs NUV-868, ABBV-744, GSK620, Pelabresib, ABBV-075, MK-8628/OTX-015, BI-894999): lower EC50
